In US20100272825A1, “METHOD OF DISINFECTING CARCASSES” (JOHNSONDIVERSEY, INC., priority 2006, published 2010):
Several values for one entry are separate records, joined by “and”; a condition that tells them apart may be missing. Identical values can stand only once.

Legend:
[1] = test system: Salmonella typhi, ATCC # 6539; assay: Sanitizing effectiveness: modified Germicidal and Detergent Sanitizing Action of Disinfectants, A.O.A.C.; type: cell-based; details: 1 ppm Chlorine Dioxide; for Survivors: initial 116,000,000 org/ml
Protocol: (§1) The invention will be further appreciated in light of the following detailed examples. In these examples, a chlorine dioxide solution was obtained by forming chlorous acid from an ion exchange resin, running this through a platinum catalyst to form chlorine dioxide. The chlorine dioxide obtained from the ion exchange resin catalyst combination was generally at about 650-750 ppm at a pH of about 2, which was then diluted with an acid solution of sodium bisulfate to reach the desired use concentration as set forth in the examples.

[2] = test system: Salmonella typhi, ATCC # 6359; assay: AOAC Chlorine (Available) in Disinfectants, subculture series; type: cell-based; parameters: key to Subculture Series 1, growth / Subculture Series 10, growth / Subculture Series 2, growth / Subculture Series 3, growth / Subculture Series 4, growth / Subculture Series 5, growth / Subculture Series 6, growth / Subculture Series 7, growth / Subculture Series 8, growth / Subculture Series 9, growth: + = growth; − = no growth
Protocol: as §1

[3] = pH 2.0, contact 10 seconds 25° C.
[4] = pH 2.5, contact 10 seconds 25° C.
[5] = pH 3.0, contact 10 seconds 25° C.
[6] = pH 3.5, contact 10 seconds 25° C.
[7] = pH 4.0, contact 10 seconds 25° C.

[O][Cl+][O-] [Chlorine Dioxide, chlorine dioxide]
% Reduction [1, 3]: 99.103%
Survivors [1, 3]: 1,040,000
% Reduction [1, 4]: 99.207%
Survivors [1, 4]: 920,000
% Reduction [1, 5]: <97.845%
Survivors [1, 5]: >2,500,000
% Reduction [1, 6]: <97.845%
Survivors [1, 6]: >2,500,000
% Reduction [1, 7]: <97.845%
Survivors [1, 7]: >2,500,000
germicidal efficacy expressed as equivalent concentration of sodium hypochlorite ([2]; 15 ppm of ClO2 at pH 2.5): 200 ppm
germicidal efficacy expressed as equivalent concentration of sodium hypochlorite ([2]; 15 ppm of ClO2 at pH 3.75): > 100 ppm and < 200 ppm
Subculture Series 1, growth ([2]; ClO2 12 ppm, pH = 2.50): −
Subculture Series 2, growth ([2]; ClO2 12 ppm, pH = 2.50): −
Subculture Series 3, growth ([2]; ClO2 12 ppm, pH = 2.50): −
Subculture Series 4, growth ([2]; ClO2 12 ppm, pH = 2.50): −
Subculture Series 5, growth ([2]; ClO2 12 ppm, pH = 2.50): +
Subculture Series 6, growth ([2]; ClO2 12 ppm, pH = 2.50): +
Subculture Series 7, growth ([2]; ClO2 12 ppm, pH = 2.50): +
Subculture Series 8, growth ([2]; ClO2 12 ppm, pH = 2.50): +
Subculture Series 9, growth ([2]; ClO2 12 ppm, pH = 2.50): +
Subculture Series 10, growth ([2]; ClO2 12 ppm, pH = 2.50): +
Subculture Series 1, growth ([2]; ClO2 12 ppm, pH = 3.82): −
Subculture Series 2, growth ([2]; ClO2 12 ppm, pH = 3.82): −
Subculture Series 3, growth ([2]; ClO2 12 ppm, pH = 3.82): +
Subculture Series 4, growth ([2]; ClO2 12 ppm, pH = 3.82): +
Subculture Series 5, growth ([2]; ClO2 12 ppm, pH = 3.82): +
Subculture Series 6, growth ([2]; ClO2 12 ppm, pH = 3.82): +
Subculture Series 7, growth ([2]; ClO2 12 ppm, pH = 3.82): +
Subculture Series 8, growth ([2]; ClO2 12 ppm, pH = 3.82): +
Subculture Series 9, growth ([2]; ClO2 12 ppm, pH = 3.82): +
Subculture Series 10, growth ([2]; ClO2 12 ppm, pH = 3.82): +
Subculture Series 1, growth ([2]; ClO2 15 ppm, pH = 2.50): −
Subculture Series 2, growth ([2]; ClO2 15 ppm, pH = 2.50): −
Subculture Series 3, growth ([2]; ClO2 15 ppm, pH = 2.50): −
Subculture Series 4, growth ([2]; ClO2 15 ppm, pH = 2.50): −
Subculture Series 5, growth ([2]; ClO2 15 ppm, pH = 2.50): −
Subculture Series 6, growth ([2]; ClO2 15 ppm, pH = 2.50): −
Subculture Series 7, growth ([2]; ClO2 15 ppm, pH = 2.50): −
Subculture Series 8, growth ([2]; ClO2 15 ppm, pH = 2.50): −
Subculture Series 9, growth ([2]; ClO2 15 ppm, pH = 2.50): +
Subculture Series 10, growth ([2]; ClO2 15 ppm, pH = 2.50): +
Subculture Series 1, growth ([2]; ClO2 15 ppm, pH = 3.75): −
Subculture Series 2, growth ([2]; ClO2 15 ppm, pH = 3.75): −
Subculture Series 3, growth ([2]; ClO2 15 ppm, pH = 3.75): −
Subculture Series 4, growth ([2]; ClO2 15 ppm, pH = 3.75): −
Subculture Series 5, growth ([2]; ClO2 15 ppm, pH = 3.75): −
Subculture Series 6, growth ([2]; ClO2 15 ppm, pH = 3.75): +
Subculture Series 7, growth ([2]; ClO2 15 ppm, pH = 3.75): +
Subculture Series 8, growth ([2]; ClO2 15 ppm, pH = 3.75): +
Subculture Series 9, growth ([2]; ClO2 15 ppm, pH = 3.75): +
Subculture Series 10, growth ([2]; ClO2 15 ppm, pH = 3.75): +

[Na+].[O-]Cl [NaOCl, sodium hypochlorite, reference compound]
Subculture Series 1, growth ([2]; NaOCl 50 ppm): −
Subculture Series 2, growth ([2]; NaOCl 50 ppm): +
Subculture Series 3, growth ([2]; NaOCl 50 ppm): +
Subculture Series 4, growth ([2]; NaOCl 50 ppm): +
Subculture Series 5, growth ([2]; NaOCl 50 ppm): +
Subculture Series 1, growth ([2]; NaOCl 100 ppm): −
Subculture Series 2, growth ([2]; NaOCl 100 ppm): −
Subculture Series 3, growth ([2]; NaOCl 100 ppm): −
Subculture Series 4, growth ([2]; NaOCl 100 ppm): −
Subculture Series 5, growth ([2]; NaOCl 100 ppm): +
Subculture Series 6, growth ([2]; NaOCl 100 ppm): +
Subculture Series 7, growth ([2]; NaOCl 100 ppm): +
Subculture Series 8, growth ([2]; NaOCl 100 ppm): +
Subculture Series 9, growth ([2]; NaOCl 100 ppm): +
Subculture Series 10, growth ([2]; NaOCl 100 ppm): +
Subculture Series 1, growth ([2]; NaOCl 200 ppm): −
Subculture Series 2, growth ([2]; NaOCl 200 ppm): −
Subculture Series 3, growth ([2]; NaOCl 200 ppm): −
Subculture Series 4, growth ([2]; NaOCl 200 ppm): −
Subculture Series 5, growth ([2]; NaOCl 200 ppm): −
Subculture Series 6, growth ([2]; NaOCl 200 ppm): −
Subculture Series 7, growth ([2]; NaOCl 200 ppm): −
Subculture Series 8, growth ([2]; NaOCl 200 ppm): +
Subculture Series 9, growth ([2]; NaOCl 200 ppm): +
Subculture Series 10, growth ([2]; NaOCl 200 ppm): +
